Data as given in patent publication US11874276B2, “STING levels as a biomarker for cancer immunotherapy” (Dana-Farber Cancer Institute, Inc., priority 2018, dated 2024).
“Also recorded” adds a separate entry of the source.

Columns and labels:
Type in all cases: cell-based, human
TNBC cell lines = assay: CXCL10 secretion by TNBC cell lines treated with STING agonist; conditions: all TNBC cell lines, relative to a control
Method: TNBC cell lines were also assayed for their responsiveness to the STING agonist AduroS100. Cells were treated with AduroS100 or a control and CXCL10 levels secreted into the supernatant were measured.

A549 cells = assay: Immunoblot of STING in KL cell lines with LKB1 reconstitution with or without DNMT inhibitor; conditions: A549 cells (KL DNMT high) with LKB1 reconstitution
Method: FIGS. 16A to 16C. FIG. 16A: Immunoblot of the indicated proteins in KL cell lines transduced with the indicated vector. FIG. 16B: Correlation between STING and DNMT1 expression in KL cell lines. FIG. 16C: Immunoblot of the indicated proteins in KL cell lines transduced with the indicated vector with or without 100 nM 5-aza-2′-deoxycytidine (DAC) treatment for 7 days.

H69 cells [1] = assay: EZH2 inhibition of H69 cells followed by IFNγ exposure; SPARCS qRT-PCR and cytokine profiling; conditions: for reactivation / de-repression of SPARCS ERVs: 5 μM for 6 days, then IFNγ 24 h
Method: For EZH2 inhibition experiments, H69 cells were treated with 5 μM GSK126 for 6 days. Drug was replenished every 3 days with both suspension and adherent cells carried each time. After the GSK126 treatment period, equal numbers of DMSO-treated and GSK126-treated cells were exposed to either H2O or 200 ng/mL IFN-γ for 24 hours before harvesting of RNA or conditioned media (CM).
(§1) Multiplex assays were performed utilizing the bead-based immunoassay approach Bio-Plex Pro™ Human Cytokine 40-plex Assay (Cat #171AK99MR2) on a Bio-plex 200 system (Cat #171000201) (Bio-Rad Laboratories, Hercules, CA) and the Human Cytokine/Chemokine Maganetic Bead Panel (Cat #HCYTMAG-60K-PX30) on a Luminex MAGPIX system (Merck Millipore, Billerica, MA). Conditioned media concentration levels [pg/ml] of each protein were derived from 5-parameter curve fitting models. Fold changes relative to the corresponding control were calculated and plotted as log 2FC. Lower and upper limits of quantitation (LLOQ/ULOQ) were imputed from standard curves for cytokines above or below detection.
(§2) Total cellular RNA was extracted using the miRNeasy Mini Kit (Qiagen, Hilden, Germany) according to manufacturer's instructions. After extraction, 1 μg total RNA was used to generate cDNA with the SuperScript III First-Strand Synthesis SuperMix for qRT-PCR kit (Thermo Fisher Scientific, Waltham, MA). Quantitative reverse transcription PCR (qRT-PCR) of the indicated genes was performed using SYBR green PCR Master Mix (Applied Biosystems, Foster City, CA) and the Applied Biosystems 7300 Fast real-time PCR system and software. The relative expression was normalized with the expression of the housekeeping gene 36B4.

H69 cells [2] = assay: Immunoblot of STING in H69 cells after GSK126 treatment
Source text: Immunoblot of STING, histone H3K27me3 and β-actin levels in H69 cells after GSK126 (EZH2 inhibitor) treatment at the indicated concentrations and for the indicated number of days.
(§3) Protein was isolated from cell lines and measured by BCA (Pierce Biotechnology). Protein extracts were subjected to polyacrylamide gel electrophoresis using the 4%-12% NuPAGE gel system (Invitrogen, Carlsbad, CA), transferred to PVDF (Millipore) membranes, and immunoblotted using antibodies that specifically recognize TBK1 (#3013), S172 pTBK1 (#5483), pERK1/2 (#4370), ERK1/2 (#9107), S473 pAKT (#4060), AKT (#9272), S396 pIRF3 (#4947), IRF3 (#4302), Y701 pSTAT1 (#9171), STAT1 (#9172), AXL (#8661), EZH2 (#5246), STING (#13647), MAVS (#3993), E-Cadherin (#3195), Vimentin (#5741), β-Actin (#4970), Tubulin (#2144) (Cell Signaling Technologies, Danvers, MA) and IKKε (#14907) (Sigma-Aldrich, St. Louis, MO).

H69AR cells [3] = assay: IFNγ pulsed H69AR cells chased in media with drug; pSTAT1 immunoblot, CXCL10/ERV qRT-PCR, CXCL10 ELISA; conditions: 10 min IFNγ pulse, 24 h chase, 1 μM
Method: For IFN pulse experiments, cells were pulsed 10 minutes with IFN-γ 200 ng/mL or 10 ng/mL), IFN-α 10 000 U/mL), or IFN-β 10 000 U/mL), extensively washed, and chased in fresh media for an additional 24, 48 or 72 hours. To test drug effects on gene expression or protein secretion, IFN-γ pulsed H69AR cells were treated with DMSO, 1 μM MRT67307 or 100 nM Ruxolitinib for 24, 48 and 72 hours. Proteome Profiler™ Human Cytokine Array Kit (#ARY005B) and CXCL10 ELISA (#DIP100) (R&D Systems, Minneapolis, MN), were performed according to manufacturer's instructions. For cytokine array, conditioned media (CM) from SCLC cells at basal conditions was collected after 48 and 72 hours. For CXCL10 ELISA, CM from IFN-γ pulsed cells was collected after 72 hours. Total cellular RNA was extracted using the miRNeasy Mini Kit (Qiagen, Hilden, Germany) according to manufacturer's instructions. After extraction, 1 μg total RNA was used to generate cDNA with the SuperScript III First-Strand Synthesis SuperMix for qRT-PCR kit (Thermo Fisher Scientific, Waltham, MA). Quantitative reverse transcription PCR (qRT-PCR) of the indicated genes was performed using SYBR green PCR Master Mix (Applied Biosystems, Foster City, CA) and the Applied Biosystems 7300 Fast real-time PCR system and software. The relative expression was normalized with the expression of the housekeeping gene 36B4.

[4] = tested on: H69AR cells, SPARCS high cell lines; assay: IFN pulse-chase of SCLC and other cancer cell lines; qRT-PCR, immunoblot
Method: To test drug effects on gene expression or protein secretion, IFN-γ pulsed H69AR cells were treated with DMSO, 1 μM MRT67307 or 100 nM Ruxolitinib for 24, 48 and 72 hours.
as §3, §2

NSCLC PDOTS = assay: Ex vivo culture of patient-derived organotypic tumor spheroids (PDOTS); cytokine profiling and viability; conditions: in contrast to NSCLC-2; for production of multiple cytokines/chemokines, especially CXCL10: NSCLC-1 PDOTS (SPARCS high features); for sensitization to ex vivo PD-1 blockade with nivolumab: NSCLC-1 PDOTS, viability Day 6
Source text: PDOTS from human NSCLC resection specimens were generating according to the recent publication^21. Briefly, fresh tumor specimens were minced and resuspended in media with collagenase type IV (Life Technologies, Carlsbad, CA). After digestion, samples were strained over 100 μm filter and 40 μm filters to generate S1 (>100 μm), S2 (40-100 μm), and S3 (<40 μm) spheroid fractions. S2 spheroid fraction was pelleted and resuspended in type I rat tail collagen (Corning, Corning, NY) at a concentration of 2.5 mg/mL. The spheroid-collagen mixture was then injected into the center gel region of the 3D microfluidic culture device. Collagen hydrogels containing PDOTS were hydrated with media and treated with anti-PD-1 (Nivolumab, 100 μg/mL), IFNγ (200 ng/mL), Poly (I:C) (0.5 μg/mL) or combination (Nivolumab+IFNγ Nivolumab+Poly (I:C)). The number of Live/Dead cells in each treatment condition was determined by Trypan Blue Exclusion method and plotted as percentage of viability.
as §1

H69AR cells [5] = assay: Poly(I:C) transfection of H69AR cells; qRT-PCR; conditions: 72 h following transfection
Method: as §2
For Poly(I:C) dsRNA treatment experiments, H69ARsgCTRL and H69ARsgMAVS cells were plated in RPMI media, transfected with 0.5 μg/mL Poly(I:C) HMW (InvivoGen, Sand Diego, CA) using XtremeGene HP transfection reagent (Sigma-Aldrich, St. Louis, MO) and cultured for 72 hours. On day 3 after transfection, conditioned media was recovered and CXCL10 protein expression was quantified using Human CXCL10/IP-10 Quantikine ELISA kit (R&D Systems, Minneapolis, MN). RNA was extracted and expression levels of relevant genes were analyzed by qRT-PCR.

## Nc1ncnc2c1ncn2[C@@H]1O[C@@H]2COP(O)(=S)O[C@@H]3C(O)[C@@H](COP(O)(=S)O[C@H]2[C@H]1O)O[C@H]3n1cnc2c(N)ncnc21 (some centres unmarked) [AduroS100]
TNBC cell lines
  CXCL10 levels secreted into the supernatant: elevated levels; also recorded: increased CXCL10 production

## Nc1ncn([C@H]2C[C@H](O)[C@@H](CO)O2)c(=O)n1 [DNMT inhibitor, 5-aza-2′-deoxycytidine]
A549 cells
  STING expression: able to restore STING expression

## CC[C@H](C)n1cc(C)c2c(C(=O)NCc3c(C)cc(C)[nH]c3=O)cc(-c3ccc(N4CCNCC4)nc3)cc21 [GSK126]
H69 cells [1]
  reactivation / de-repression of SPARCS ERVs: induced their reactivation
H69 cells [1]; listed as EZH2 inhibitor
  reactivation / de-repression of SPARCS ERVs: de-repressed the same SPARCS as in H69AR cells
H69 cells [1]; treatment over 6 days
  IFNγ induced cytokine secretion: enhanced
H69 cells [2]
  STING protein expression: induces STING protein expression

## O=C(NCCCNc1nc(Nc2cccc(CN3CCOCC3)c2)ncc1C1CC1)C1CCC1 [MRT67307]
H69AR cells [3]
  effect on downstream CXCL10 expression: partially inhibited

## IFNα
[4]; H69AR cells, 10 min pulse with chase
  SPARCS upregulation (MLT1C49, MLT1A): SPARCS upregulation

## Poly(I:C)
NSCLC PDOTS
  production of multiple cytokines/chemokines, especially CXCL10: markedly enhanced; also recorded: markedly enhances CXCL10 production
  sensitization to ex vivo PD-1 blockade with nivolumab: sensitized; also recorded: sensitizes them to PD-1 blockade
H69AR cells [5]
  SPARCS upregulation: SPARCS upregulation
  induction of type I/II IFNs: Induction of type I/II IFNs was also confirmed

B1: IFNγ: Recombinant human IFN-γ protein from R&D Systems (protein, UniProt P01579 24-161, looked up)
Interferon gamma: QDPYVKEAENLKKYFNAGHSDVADNGTLFLGILKNWKEESDRKIMQSQIVSFYFKLFKNFKDDQSIQKSVETIKEDMNVKFFNSNKKKRDDFEKLTNYSVTDLNVQRKAIHELIQVMAELSPAAKTGKRKRSQMLFRG
NSCLC PDOTS
  production of multiple cytokines/chemokines, especially CXCL10: markedly enhanced
  sensitization to ex vivo PD-1 blockade with nivolumab: sensitized
[4]; H69AR but not H69 cells, pulse treatment
  pTBK1, pIRF3 and pSTAT1 activation: hyperactivated and sustained
[4]; H69AR cells, 10 minute pulse
  induction of TRIM22 and MLT1C49: marked induction
[4]; SPARCS high cells relative to SPARCS low cells, pulse treatment
  MLT1C49, CXCL10 and PD-L1 expression: significantly induced
